Experimental data reported in patent US6989397B1, “Iron chelators and uses thereof” (University of Queensland, priority 1999, dated 2006).
Where “and” joins values, the source holds several entries; their conditions need not be identical. Equal entries are not always repeated. Where two headings read alike, the source gives them in different places.

Tests used:
[1] = tested on: SK-N-MC neuroepithelioma cells; test: 3H-thymidine, 3H-leucine or 3H-uridine incorporation; type: cell-based, human; details: 20 hr with chelators 50 μM, DFO 100 μM, then label 2 h, Mean±SD
Description: Labelling of cells with ^3H-thymidine (20 Ci/mmol: Dupont NEN, MA, U.S.A.), ^3H-uridine (42.7 Ci/mmol/Dupont NEN, MA, U.S.A.) and ^3H-leucine (52 Ci/mmol: Dupont NEN) was estimated after precipitation with trichloroacetic acid (TCA). After a 20 hr incubation with the chelators, ^3H-leucine, ^3H-uridine or ^3H-thymidine (1 μCi/ml) were then added for 2 hrs at 37° C. Subsequently, petri dishes containing cell cultures were placed on ice and washed four times with ice-cold Hanks' balanced salt solution (BSS) and the cells detached from the plate using 1 mM EDTA in Ca/Mg-free saline. The cells were then pelleted by centrifugation, the supernatant removed and the pellet frozen at −70° C. After thawing the cells on ice, 1 ml of ice-cold 20% TCA was added and the solution then vortexed and kept on ice for 1 hr with periodic mixing. This solution was then centrifuged at 15,000 rpm for 15 mins at 4° C. and the supernatant removed. The pellet was then washed twice with 1 ml of ice-cold 10% TCA. The pellet was dissolved in 0.5 ml of 1 M NaOH and transferred to scintillation tubes with 3 ml of scintillant. Radioactivity was measured on a β-scintillation counter (LKB Wallace, Finland).
Table 3. The effect of the chelators on ^3H-thymidine, ^3H-leucine, or ^3H-uridine incorporation into SK-N-MC neuroepithelioma cells. Cells were incubated for 20 hr at 37° C. with either DFO (100 μM) or the other chelators (50 μM). Following this, either ^3H-thymidine, ^3H-leucine, or ^3H-uridine (1 μCi/mL) were added and the cells incubated for an additional 2 h at 37° C. (see Methods for details). Results are Mean±SD (4–5 determinations) from a typical experiment of 2–4 experiments performed.

[2] = tested on: SK-N-MC neuroepithelioma cells; test: 59Fe release from prelabelled cells (iron efflux); type: cell-based, human; details: DFO 100 μM; for % Cellular Iron Released: labelled 3 h with 59Fe-transferrin 0.75 μM, reincubated 3 h at 37° C., chelators 50 μM, Mean±SD; for release of cellular 59Fe (FIG. 2A): 3 hr labelling, 3 hr reincubation, ligands 50 μM, FIG. 2A screening experiment
Description: (§1) The effect of chelators on ^59Fe uptake from ^59Fe-Tf and ^59Fe release from prelabelled cells was studied using standard procedures reported previously (Richardson et al., 1994, J. Lab Clin. Med. 124 660–71). The amount of ^59Fe internalized by the cells was measured by incubation with the general protease pronase (1 mg/ml) for 30 min at 4° C. to remove membrane-bound ^59Fe and Tf (Richardson et al., 1990; Baker et al., 1998, Biochim. Biophys. Acta 1380 21–30).
The efflux of ^59Fe from SK-N-MC cells was examined after a 3 hr labelling period with ^59Fe-Tf (0.75 μM) followed by a 3 hr reincubation in the presence and absence of DFO (100 μM) or the remainder of the ligands at 50 μM (FIG. 2A).
(§2) Table 1. The effect of DFO, 311, PCTH, PCBH, or PCBHH on ^59Fe release from BE-2 neuroblastoma cells, SK-N-MC neuroepithelioma cells, and SK-Mel-28 melanoma cells. Cells were labeled for 3 h at 37° C. with ^59Fe-transferrin (0.75 μM), washed, and then reincubated with the chelators for 3 h at 37° C. […] Results are Mean±SD of three determinations in a typical experiment.

SK-Mel-28 melanoma cells [3] = test: 59Fe release from prelabelled cells (iron efflux); type: cell-based, human; details: labelled 3 h with 59Fe-transferrin 0.75 μM, reincubated 3 h at 37° C., chelators 50 μM, DFO 100 μM, Mean±SD
Description: as §1, §2

SK-Mel-28 melanoma cells [4] = test: internalized 59Fe uptake from 59Fe-transferrin; type: cell-based, human; details: 59Fe-transferrin 0.75 μM, 3 h at 37° C., chelators 50 μM, DFO 100 μM, mean±SD
Description: as §1
Table 2. The effect of DFO, 311, PCTH, PCBH, or PCBHH on internalized ^59Fe uptake from ^59Fe-transferrin by BE-2 neuroblastoma cells, SK-N-MC neuroepithelioma cells, and SK-Mel-28 melanoma cells. Cells were incubated with the chelators and ^59Fe-transferrin (0.75 μM) for 3 h at 37° C., washed, and incubated for 30 min at 4° C. with pronase (1 mg/ml) to separate the internalized from the membrane-bound ^59Fe. All chelators were screened at a concentration of 50 μM except for DFO which was examined at 100 μM. Results are mean±SD (three determinations) from a typical experiment.

[5] = tested on: SK-N-MC neuroepithelioma cells; test: cellular proliferation, MTT assay; type: cell-based, human; details: 90 h incubation, chelators 0.39–50 μM, read-out: IC50, inhibition of growth of SK-N-MC cells
Description: FIG. 4. The effect of chelator concentration on the proliferation of SK-N-MC neuroepithelioma cells. Cells were incubated in the presence and absence of the chelators (0–50 μM) for 90 h at 37° C. After this incubation period, cellular density was measured via the MTT assay. Each data point represents the mean of four replicates in a typical experiment of two experiments performed.
The effects of the chelators on the proliferation of SK-N-MC neuroepithelioma cells were examined using the MTT (3-(4,5-dimethylthiazol-2-yl)-2,5-diphenyltetrazolium) assay by essentially the same method as described previously (Richardson et al., 1995). Cellular proliferation was examined by seeding cells in 96-well microtitre plates at 15,000 cells/well in 0.1 mL of complete medium containing human diferric Tf (1.25 μM). […] The cells were allowed to grow overnight and the chelators were then added in 0.1 mL of complete medium containing differic transferrin (1.25 μM). The final concentrations of the chelators were 0.39–50 μM. Control samples contained complete medium and diferric Tf (1.25 μM). Cells were incubated with the chelators for 90 hrs at 37° C. in a humidified atmosphere containing 95% air and 5% CO2. After this incubation, 0.01 mL of MTT was added to each well and the plates incubated for 2 hrs at 37° C. The cells were solubilized by adding 0.1 mL of 10% SDS-50% isobutanol in 0.01 M HCl and the plates were read at 570 nm on a scanning multiwell spectrophotometer (Titertek Multiscan; Beckman Instruments Inc., California). As shown previously for the SK-N-MC cell line, MTT colour formation was directly proportional to the number of viable cells (Richardson et al., 1995).

BE-2 neuroblastoma cells = test: 59Fe release from prelabelled cells (iron efflux); type: cell-based; details: labelled 3 h with 59Fe-transferrin 0.75 μM, reincubated 3 h at 37° C., chelators 50 μM, DFO 100 μM, Mean±SD
Description: as §1, §2

IC50 [5] [µM] | Structure (SMILES) | 3H-Leucine incorporation, % Control [1] | 3H-Thymidine incorporation, % Control [1] | 3H-Uridine incorporation, % Control [1] | % Cellular Iron Released [2] [%] | % Cellular Iron Released (SK-Mel-28 melanoma cells [3]) [%] | Internalised Iron Uptake (% Control) (SK-Mel-28 melanoma cells [4]) | % Cellular Iron Released (BE-2 neuroblastoma cells) [%] | release of cellular 59Fe (FIG. 2A) [2] | IC50 ([5]; Homo sapiens, SK-N-MC) [µM]
2 | O=C(NN=Cc1c(O)ccc2ccccc12)c1ccncc1 [Chelator 311, 2-hydroxy-1-naphthylaldehyde isonicotinoyl hydrazone, reference compound] | 2 % Control and 2 ± 0.3 % Control | 0.1 % Control and 0.1 ± 0.1 % Control | 5 % Control and 5 ± 2 % Control | 49 ± 1 | 70 ± 1 | 9 ± 1 % Control | 52 ± 1 |  | 
 | CC(=O)N(O)CCCCCNC(=O)CCC(=O)N(O)CCCCCNC(=O)CCC(=O)N(O)CCCCCN [DFO, desferrioxamine, reference compound] | 9 % Control and 9 ± 0.7 % Control | 29 ± 13 % Control | 34 % Control and 34 ± 5 % Control | 18 ± 3 | 27 ± 1 | 98 % Control and 98 ± 7 % Control | 44 ± 2 | 19% | 47
 | O=C(NN=Cc1ccco1)c1ccncc1 [FIH, 2furoylcarboxaldehyde isonicotinoyl hydrazone] | 78 ± 5 % Control | 17 ± 4 % Control | 48 ± 10 % Control |  |  |  |  | did not appreciably increase | 
50 | O=C(NN=Cc1ccccn1)c1ccccc1 [PCBH, 2-pyridylcarboxaldehyde benzoyl hydrazone] | 30 ± 13 % Control | 72 % Control and 72 ± 16 % Control | 31 ± 9 % Control | 47 ± 3 | 54 ± 4 | 36 ± 6 % Control | 44 ± 1 |  | 
 | O=C(NN=Cc1ccccn1)c1cccs1 [PCTH, 2-pyridylcarboxaldehyde 2-thiophenecarboxyl hydrazone] | 21 ± 6 % Control | 64 % Control and 64 ± 14 % Control | 43 ± 2 % Control | 51 ± 5 | 57 ± 6 | 38 ± 6 % Control | 50 ± 1 |  | 
